As usually defined, the IC50 is the concentration needed to halve the response being measured.

Among the data in ChEMBL document CHEMBL3638798, “Metastin derivative and use thereof” (2013) are IC50 values, retold here.

In the experiment the target is KiSS-1 receptor (Homo sapiens, UniProt Q969F8). As to the kind of experiment: Binding Assay: Binding inhibition assay using human GPR54.
Sequence of KiSS-1 receptor (Q969F8 whole entry): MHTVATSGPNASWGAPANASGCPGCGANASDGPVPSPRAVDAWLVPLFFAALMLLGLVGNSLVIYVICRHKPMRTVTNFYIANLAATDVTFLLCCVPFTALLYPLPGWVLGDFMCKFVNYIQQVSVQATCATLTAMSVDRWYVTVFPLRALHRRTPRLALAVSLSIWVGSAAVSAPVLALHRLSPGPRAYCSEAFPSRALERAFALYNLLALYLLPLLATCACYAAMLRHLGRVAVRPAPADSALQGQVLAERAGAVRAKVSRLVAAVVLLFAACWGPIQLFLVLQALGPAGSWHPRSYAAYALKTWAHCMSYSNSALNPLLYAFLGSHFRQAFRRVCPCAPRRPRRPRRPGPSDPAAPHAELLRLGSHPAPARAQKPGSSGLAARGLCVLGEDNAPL

The molecule `CNCC(=O)N[C@@H](CC(C)C)C(C)=O` gave an IC50 of 0.71 nM. This lies in the sub-nanomolar range.
